The source of these data is PubChem BioAssay (NCI).

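48-hour exposure; five concentrations; linearly interpolated endpoints. GI50: concentration for 50% inhibition of growth. TGI is the concentration that stops growth completely.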

Holding throughout (test): inhibition of tumour cell growth, NCI panel, 48 h
Assay [1] relates to M14 melanoma.
Assay [2] concerns UACC-62 melanoma.
For assay [3], the system named is NCI-H522 lung.
The subject of assay [4] is ACHN renal.
The test system of assay [5] is UACC-257 melanoma.
In assay [6] the test system is HL-60(TB) leukemia.
Assay [7] relates to A549 NSCLC.
The test system of assay [8] is HOP-92 NSCLC.
For assay [9], the system named is RXF 393 renal.
The test system of assay [10] is MDA-MB-231 breast.

Turning to `CCOC(=O)C(Cc1ccc(N=NN(C)C)cc1)NC(=O)CC1c2ccccc2-c2ccccc21` (centres undefined), the TGI in assay [1], in assay [2], in assay [3], in [4], in assay [5] and in assay [6] was above 100 µM each time. In [7], this compound registered a TGI above 100 µM.

In the case of `C/C(CCN(C)C)=N/O`, the TGI in assay [1] stood at 21.9 µM; in assay [8], 25.5 µM; in assay [2] it was 24 µM; in [9], 15.7 µM; in [3], 2.55 µM; in assay [4], 22.3 µM. Moreover, the figures for the TGI in assay [5], in [6] and in [7] were 33.2 µM, 13.5 µM and 17.4 µM, respectively.

As for `Cc1cc(-c2ccc(N=Nc3ccc4c(S(=O)(=O)O)cc(S(=O)(=O)O)c(N)c4c3O)c(C)c2)ccc1N=Nc1ccc2c(S(=O)(=O)O)cc(S(=O)(=O)O)c(N)c2c1O`, the TGI in assay [8], in [2], in assay [9], in [3], in [5] and in assay [6] was above 100 µM throughout. This compound displayed a TGI in assay [7] above 100 µM.

Take `CN1C(c2ccccc2)CC(O)CC1c1ccccc1` (centres undefined): the TGI in assay [1], in [8], in assay [2], in assay [9], in [3] and in [4] was above 100 µM in each case. Further, the TGI in assay [5], in assay [6] and in assay [7] was above 100 µM in each case.

Regarding `Cc1cccc2c1nc1n2C(=O)c2ccccc2-1`, the TGI in assay [1], in [8], in assay [2], in [9], in assay [3] and in [4] was above 100 µM in each case. Also, the TGI in assay [5], in assay [6] and in assay [7] was above 100 µM in each case.

For `COC(=O)c1c(O)ccc2c1c1c(n2Cc2ccc(OC)cc2)C(=O)c2ccccc2C1`, the TGI in [10] was above 100 µM; in assay [1], above 100 µM; in assay [2] it was above 100 µM; in assay [9], 79.9 µM; in assay [5], above 100 µM; in [6], above 100 µM. This compound also showed a TGI in assay [7] above 100 µM.

As to `CC(C)(C)C(=O)c1c(O)c2ccccc2c2ccccc2c1=O`, the TGI in [10], in assay [1], in [8], in [2], in assay [3] and in assay [4] was above 100 µM throughout. The TGI in assay [5], in [6] and in assay [7] was above 100 µM in each case.

For the compound `Cn1c(CO)ccc1-c1ccc(-c2ccc(CO)[se]2)[se]1`, the TGI in assay [10] is above 67.2 µM; in [1], above 73.8 µM; in assay [2] it was 31.5 µM; in assay [9], above 100 µM; in assay [3], above 86.3 µM; in assay [4], above 75.3 µM. Besides, the TGI in assay [5] is above 100 µM; in assay [6], above 59.1 µM; in assay [7], above 100 µM.

On to `O=C(O)C1CCC(=O)N1C(=O)COc1cc(Cl)c(Cl)cc1Cl` (centres undefined), for which the TGI in [1], in [8], in assay [2], in assay [3], in assay [4] and in [5] was above 100 µM throughout. In [7], this compound showed a TGI above 100 µM.

On to `NCCCNc1nc2ccccc2c2c(=O)c3cc(Cl)ccc3sc12`, for which the GI50 in assay [10] is 1.34 µM; in assay [8], 1.28 µM; in assay [2], 1.67 µM; in [3], 1.66 µM; in [4], 1.57 µM; in [5], 2 µM. Besides, the TGI in [10] stood at 2.69 µM; in [8], 3.35 µM; in assay [2], 3.16 µM; in assay [3], 3.14 µM; in assay [4], 2.92 µM; in assay [5], 3.74 µM.

`COC(=O)[C@H](C)NC(=O)[C@H](NS(=O)(=O)c1nc2ccccc2s1)c1ccccc1`: the TGI in assay [10] is 64.6 µM; in assay [1], 22.9 µM; in [8] it was 27.4 µM; in assay [2], 28.3 µM; in assay [9] it was 34.8 µM; in assay [4] it was above 100 µM. For the same compound, the TGI was 26.3 µM in assay [5] and above 100 µM in assay [6].

For the compound `COCOC1CCCC[C@@]1(OCCOCCO[C@@]1(c2ccccc2)CCCC[C@H]1OCOC)c1ccccc1` (some centres undefined), the TGI in [1], in assay [2], in assay [9], in assay [3], in [4] and in assay [5] was above 100 µM each time. Also, the TGI in assay [6] and in assay [7] was above 100 µM in each case.

As to `Nc1c(C(=O)O)c2ccc([N+](=O)[O-])cc2c(=O)n1-c1nc2ccccc2s1`, the TGI in assay [10], in assay [1], in assay [2], in [9], in assay [3] and in [4] was above 100 µM throughout. In assay [7], this compound returned a TGI above 100 µM.

In the case of `CC(=O)OC12c3ccccc3C(c3ccccc31)C1C(=O)N(N=C(C)C)C(=O)C12` (centres undefined), the TGI in [10], in assay [1], in assay [2], in [9], in assay [5] and in assay [6] was above 100 µM throughout. Besides, the TGI in assay [7] was above 100 µM.

With `COC1=C(OC)C(=O)C(Cc2c(Cl)nc3sccn23)=C(C)C1=O`, the TGI in assay [10] was 8.28 µM; in assay [1], 24.3 µM; in assay [2], 20.6 µM; in assay [9] it was 31.1 µM; in [3], 20.2 µM; in [4] it was 27.8 µM. Further, the TGI in [5] came to 16.1 µM; in assay [6], 6.98 µM; in assay [7] it was 25.1 µM.
